Reference: patent US10266535B2, “Inhibitor of FLT3 kinase and use thereof” (HEFEI INSTITUTES OF PHYSICAL SCIENCE, CHINESE ACADEMY OF …, priority 2015, dated 2019)
Counter-ions that a name gives are not always drawn. Like-named read-outs stand apart in the source and are kept apart here.

Columns and labels:
[1] = system: MOLM-13 (expressing FLT3/ITD mutant gene and wild-type FLT3 gene); test: Cell proliferation, Cell Titer-Glo, MOLM-13; type: cell-based; details: Homo sapiens
How it was run: (§1)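 Read-out: luminescence from ATP in live cells (CellTiter-Glo), taken as viable cell number. Cell lines were built in-house.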

[2] = system: BaF3-FLT3-ITD-F691L (stably expressing FLT3/ITD F691L mutant activated kinase); test: Cell proliferation, Cell Titer-Glo, BaF3-FLT3-ITD-F691L; type: cell-based; details: Mus musculus
Procedure: (§2) The above cell lines were constructed by our laboratory.
(§3) The number of viable cells was determined by quantification of ATP in living cells using the Cell Titer-Glo® (Promega, USA) chemiluminescence cell viability assay kit.

[3] = system: TEL-BaF3-FLT3-D835Y (stably expressing FLT3 D835Y mutant activated kinase); test: Cell proliferation, Cell Titer-Glo, TEL-BaF3-FLT3-D835Y; type: cell-based; details: Mus musculus
Procedure: as §2, §3

[4] = system: TEL-BaF3-BMX (stably expressing BMX kinase); test: Cell proliferation, Cell Titer-Glo, TEL-BaF3-BMX; type: cell-based; details: Mus musculus; incubated for 72 hours
How it was run: (§4)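 Proliferation of the engineered BaF3 lines was followed by measuring ATP in living cells with a CellTiter-Glo chemiluminescence viability kit, and the luminescent signal served as the count of viable cells.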

[5] = system: U937 (expressing wild-type FLT3 gene); test: Cell proliferation, Cell Titer-Glo, U937; type: cell-based, human; details: Homo sapiens, U-937, 72 h
How it was run: as §1

[6] = system: BaF3-FLT3-ITD-D835Y (stably expressing FLT3/ITD D835Y mutant activated kinase); test: Cell proliferation, Cell Titer-Glo, BaF3-FLT3-ITD-D835Y; type: cell-based; details: Mus musculus
Procedure: as §2, §3

[7] = system: MOLM-14 (expressing FLT3/ITD mutant gene and wild-type FLT3 gene); test: Cell proliferation, Cell Titer-Glo, MOLM-14; type: cell-based; details: Homo sapiens
Procedure: as §2, §3

[8] = system: MV4-11 (expressing FLT3/ITD mutant gene); test: Cell proliferation, Cell Titer-Glo, MV4-11; type: cell-based; details: Homo sapiens
How it was run: as §1

BTK protein kinase = BTK protein kinase (Homo sapiens (Human), UniProt Q06187); test: In vitro inhibition activity (enzymatic activity), ADP-Glo, BTK; type: biochemical; details: ATP 10 μM
Sequence of BTK protein kinase (Q06187 whole entry): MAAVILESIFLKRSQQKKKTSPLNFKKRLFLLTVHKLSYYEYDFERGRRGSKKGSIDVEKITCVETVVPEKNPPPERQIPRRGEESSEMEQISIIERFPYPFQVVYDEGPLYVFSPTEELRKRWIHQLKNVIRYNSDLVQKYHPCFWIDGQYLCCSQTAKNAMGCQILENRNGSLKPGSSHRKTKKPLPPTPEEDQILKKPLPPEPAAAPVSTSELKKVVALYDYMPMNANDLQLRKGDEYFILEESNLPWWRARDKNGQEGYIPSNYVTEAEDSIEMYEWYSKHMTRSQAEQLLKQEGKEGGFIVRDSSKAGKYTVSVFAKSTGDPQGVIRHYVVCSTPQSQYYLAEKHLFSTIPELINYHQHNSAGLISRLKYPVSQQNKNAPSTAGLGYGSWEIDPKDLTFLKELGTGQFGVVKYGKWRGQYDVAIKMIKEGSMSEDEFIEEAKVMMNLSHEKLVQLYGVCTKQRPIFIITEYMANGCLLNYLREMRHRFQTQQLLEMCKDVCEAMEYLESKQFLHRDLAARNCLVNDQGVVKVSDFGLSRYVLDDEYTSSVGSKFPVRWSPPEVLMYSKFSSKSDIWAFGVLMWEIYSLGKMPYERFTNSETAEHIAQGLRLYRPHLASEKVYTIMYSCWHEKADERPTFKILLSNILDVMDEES

[9] = system: TEL-FLT3-BaF3 (stably expressing FLT3 kinase); test: Cell proliferation, Cell Titer-Glo, TEL-FLT3-BaF3; type: cell-based; details: Mus musculus
Procedure: as §2, §3

pro-B cell BaF3 = test: Cell proliferation, Cell Titer-Glo, BaF3; type: cell-based; details: Mus musculus, incubated for 72 hours
How it was run: as §4

[10] = system: TEL-BaF3-FLT3/ITD (stably expressing FLT3/ITD mutant activated kinase); test: Cell proliferation, Cell Titer-Glo, TEL-BaF3-FLT3/ITD; type: cell-based, mouse; details: Mus musculus, 72 h
How it was run: as §4

[11] = system: TEL-BaF3-BLK (stably expressing BLK kinase); test: Cell proliferation, Cell Titer-Glo, TEL-BaF3-BLK; type: cell-based; details: Mus musculus; incubated for 72 hours
How it was run: as §4

[12] = system: Signaling pathways of FLT3 in MV4-11 and MOLM-14 cell lines; test: Effects on upstream and downstream signaling pathways of FLT3 in cells; type: cell-based, human
MOLM-14 cells = test: Nude mouse subcutaneous tumor model with MOLM-14 cells; type: in vivo; details: oral gavage
Procedure: More than 30 mice (5-week-old) (Balb/c-nu female mice, purchased from Shanghai Snake Experimental Animal Co., Ltd.) were inoculated subcutaneously with MOLM-14 cells in 1×10^7 cells/mouse, the changes in body weight and tumor volume were recorded daily (tumor volume=Tumor length×tumor width^2/2).

[13] = system: TEL-cKIT-BaF3 (stably expressing cKIT kinase); test: Cell proliferation, Cell Titer-Glo, TEL-cKIT-BaF3; type: cell-based; details: Mus musculus; incubated for 72 hours
How it was run: as §4

[14] = system: TPR-MET-BaF3 (stably expressing MET kinase); test: Cell proliferation, Cell Titer-Glo, TPR-MET-BaF3; type: cell-based; details: Mus musculus; incubated for 72 hours
Procedure: as §2, §3

[15] = system: TEL-BaF3-EGFR (stably expressing EGFR kinase); test: Cell proliferation, Cell Titer-Glo, TEL-BaF3-EGFR; type: cell-based; details: Mus musculus; incubated for 72 hours
Procedure: as §2, §3

[16] = incubated for 72 hours, read-out: BaF3-FLT3-ITD-F691L IC50
[17] = incubated for 72 hours, read-out: U937 IC50
[18] = incubated for 72 hours, read-out: BaF3-FLT3-ITD-D835Y IC50
[19] = MOLM-14, incubated for 72 hours, read-out: MOLM-14 IC50
[20] = MV4-11, incubated for 72 hours, read-out: MV4-11 IC50
[21] = incubated for 72 hours, read-out: TEL-FLT3-BaF3 IC50

Row | SMILES | IC50 [4] | IC50 (BTK protein kinase) | IC50 (pro-B cell BaF3) | IC50 [11] | IC50 [2, 16] | IC50 [5, 17] | IC50 [6, 18] | IC50 [7, 19] | IC50 [8, 20] | IC50 [9, 21] | IC50 [13] | further results
1 | CC(C)C[C@@H](N)C(=O)NC1CCC(n2nc(-c3ccc(Oc4ccccc4)cc3)c3c(N)ncnc32)CC1.Cl (stereo partly drawn) [Compound 77, (R)-2-amino-N-(4-(4-amino-3-(4-phenoxyphenyl)-1H-pyrazolo[3,4-d]pyrimidin-1-yl)cyclohexyl)-4-methylpentanamide hydrochloride] | 52 nM | 128 nM | 2200 nM | 2.6 nM | – | – | – | – | – | – | – | IC50 ([1]; MOLM-13, 72 h, read-out: MOLM-13 IC50 [μM]): 0.0027 µM; IC50 ([2]; 72 h, read-out: BaF3-FLT3-ITD-F691L IC50 [μM]): 0.067 µM; IC50 ([3]; 72 h, read-out: TEL-BaF3-FLT3-D835Y IC50 [μM]): 0.021 µM; IC50 ([5]; read-out: U937 IC50 [μM], incubated for 72 hours): 3.4 µM; IC50 ([6]; 72 h, read-out: BaF3-FLT3-ITD-D835Y IC50 [μM]): 0.073 µM; IC50 ([7]; MOLM-14, 72 h, read-out: MOLM-14 IC50 [μM]): 0.0084 µM; IC50 ([8]; MV4-11, 72 h, read-out: MV4-11 IC50 [μM]): 0.0016 µM; IC50 ([9]; 72 h, read-out: TEL-FLT3-BaF3 IC50 [μM]): 0.0081 µM; IC50 ([10]; incubated for 72 hours, read-out: TEL-BaF3-FLT3/ITD IC50): < 0.0003 µM; efficacy compared with Control Compound AC220 ([12]; AC220 at 0.1 μM): better efficacy; C-Myc (degradation; for AC220 phosphorylation) ([12]; treated for 4 hours): significant effects on the degradation; phosphorylation of STAT5 ([12]; treated for 4 hours): very strong inhibitory effects; phosphorylation of protein kinase FLT3 ([12]; treated for 4 hours): strongly inhibited; tumor volume growth of the mice (MOLM-14 cells; 25 mg/kg/day): significantly slowed down; growth of the tumors of the mice (MOLM-14 cells; 50.0 mg/kg/day): almost no growth; tumor growth of the mice (MOLM-14 cells; 12.5-50 mg/kg, 2 to 3 weeks): significantly inhibited
2 | CN(C)CC(=O)NC1CCC(n2nc(-c3ccc(Oc4ccccc4)cc3)c3c(N)ncnc32)CC1 (stereo not drawn) [Compound 76, N-(4-(4-amino-3-(4-phenoxyphenyl)-1H-pyrazolo[3,4-d]pyrimidin-1-yl)cyclohexyl)-2-(dimethylamino)acetamide] | 120 nM | 388 nM | 4200 nM | 30 nM | 0.18 µM | > 10 µM | 0.13 µM | 0.036 µM | 0.027 µM | 0.042 µM | 430 nM | IC50 ([3]; incubated for 72 hours, read-out: TEL-BaF3-FLT3-D835Y IC50): 0.023 µM; IC50 ([10]; read-out: TEL-BaF3-FLT3/ITD IC50 [μM]): 0.0067 µM
3 | CC(C)[C@@H](N)C(=O)NC1CCC(n2nc(-c3ccc(Oc4ccccc4)cc3)c3c(N)ncnc32)CC1 (stereo partly drawn) [Compound 86, (R)-2-amino-N-(4-(4-amino-(4-phenoxyphenyl)-1H-pyrazolo[3,4-d]pyrimidin-1-yl)cyclohexyl)-3-methylbutanamide hydrochloride] | < 0.3 nM | – | – | 1 nM | 0.15 µM | 1.4 µM | 0.006 µM | 0.005 µM | 0.02 µM | 0.004 µM | 270 nM | IC50 ([1]; MOLM-13, incubated for 72 hours, read-out: MOLM-13 IC50): 0.001 µM; IC50 [14]: 3300 nM; IC50 [15]: 1300 nM
